Measurements from DBAASP.
Values after ≈ are worked out from the molar mass of the structure shown.

Key:
Assay in all cases: ≥ marks a high value that may be exact or a test limit, other limits are often not marked, values filed in µg/mL are converted to µM
[1] = test system: Klebsiella oxytoca BCRC 13985
[2] = test system: Pseudomonas aeruginosa BCRC 10944
[3] = test system: Lactococcus garvieae
[4] = test system: Vibrio parahaemolyticus
[5] = test system: Escherichia coli BCRC 10675
[6] = test system: Vibrio parahaemolyticus BCRC 10806
[7] = test system: Vibrio harveyi
[8] = test system: Staphylococcus aureus BCRC 10780
[9] = test system: Vibrio anguillarum serotype O1
[10] = test system: Listeria monocytogenes BCRC 14845
[11] = test system: Vibrio alginolyticus BCRC 12829
[12] = test system: Yersinia enterocolitica BCRC 13999
[13] = test system: Staphylococcus aureus BCRC 10781
[14] = test system: Streptococcus iniae
[15] = test system: Staphylococcus xylosus BCRC 12930
[16] = test system: Enterobacter cloacae BCRC 10401
[17] = test system: Streptococcus equinus BCRC 14729
[18] = test system: Vibrio alginolyticus
[19] = test system: Klebsiella aerogenes BCRC 10370
[20] = test system: Staphylococcus aureus
[21] = test system: Streptococcus gordonii Challis DL1
[22] = test system: Pseudomonas aeruginosa PAK
[23] = test system: Streptococcus sanguinis NY101
[24] = test system: Streptococcus mitis ATCC 903
[25] = test system: Streptococcus mutans UA159

With `CC[C@H](C)[C@H](NC(=O)[C@@H](NC(=O)[C@H](CCCCN)NC(=O)[C@H](Cc1ccc(O)cc1)NC(=O)[C@H](Cc1ccccc1)NC(=O)[C@H](CCCCN)NC(=O)[C@@H](NC(=O)[C@H](Cc1ccccc1)NC(=O)[C@H](C)NC(=O)[C@@H](NC(=O)[C@H](C)NC(=O)[C@H](C)NC(=O)[C@H](CCCCN)NC(=O)[C@@H](NC(=O)[C@H](CC(C)C)NC(=O)[C@H](C)NC(=O)[C@H](CCCCN)NC(=O)[C@H](C)NC(=O)CN)[C@@H](C)O)[C@@H](C)O)[C@@H](C)O)[C@@H](C)O)C(=O)N[C@@H](Cc1c[nH]c2ccccc12)C(=O)O` [GAKALTKAATAFTKFYKTIW] the MIC [1] was 7.21 µM (≈ 16 µg/mL), the MIC [2] was 28.9 µM (≈ 64 µg/mL) and the MIC [3] was ≥ 57.7 µM. For the same compound, the MIC [4] was 14.4 µM (≈ 32 µg/mL), the MIC [5] was 7.21 µM (≈ 16 µg/mL) and the MIC [6] was ≥ 57.7 µM. For the same compound, the MIC [7] was 28.9 µM (≈ 64 µg/mL), the MIC [8] was ≥ 57.7 µM and the MIC [9] was 28.9 µM (≈ 64 µg/mL). For the same compound, the MIC [10] was 28.9 µM (≈ 64 µg/mL), the MIC [11] was ≥ 57.7 µM and the MIC [12] was ≥ 57.7 µM. The MIC [13] was ≥ 57.7 µM, the MIC [14] was ≥ 57.7 µM and the MIC [15] was 28.9 µM (≈ 64 µg/mL). The MIC [16] was 7.21 µM (≈ 16 µg/mL), the MIC [17] was ≥ 57.7 µM and the MIC [18] was 14.4 µM (≈ 32 µg/mL). For the same compound, the MIC [19] was 7.21 µM (≈ 16 µg/mL).

`CC[C@H](C)[C@H](NC(=O)[C@H](Cc1ccccc1)NC(=O)CNC(=O)CNC(=O)[C@H](CO)NC(=O)[C@H](Cc1ccccc1)NC(=O)[C@H](Cc1c[nH]c2ccccc12)NC(=O)[C@H](CCCN=C(N)N)NC(=O)[C@H](Cc1c[nH]c2ccccc12)NC(=O)[C@H](CCCN=C(N)N)NC(=O)[C@H](Cc1c[nH]c2ccccc12)NC(=O)[C@@H](N)CCCN=C(N)N)C(=O)N[C@@H](CCCCN)C(=O)N[C@@H](Cc1cnc[nH]1)C(=O)N[C@@H](Cc1ccccc1)C(=O)N[C@H](C(=O)N[C@@H](Cc1cnc[nH]1)C(=O)N[C@@H](CCCN=C(N)N)C(=O)N[C@@H](Cc1ccccc1)C(N)=O)[C@@H](C)CC` [RWRWRWFSGGFIKHFIHRF] showed an MIC [20] of 12.2 µM (≈ 32 µg/mL), an MIC [21] of 12.2 µM (≈ 32 µg/mL) and an MIC [22] of 23.9 µM (≈ 62.5 µg/mL). It also gave an MIC [23] of 12.2 µM (≈ 32 µg/mL), an MIC [24] of 12.2 µM (≈ 32 µg/mL) and an MIC [25] of 3.05 µM (≈ 8 µg/mL).
